Assay results as given in patent US9890139B2, “CYP17 inhibitors/antiandrogens” (Orion Corporation, priority 2013, dated 2018).
Like-named read-outs stand apart in the source and are kept apart here.

Key:
17,20 lyase (CYP17) = target: T1, 17,20 lyase (CYP17) (Homo sapiens, UniProt P05093); experiment: 17,20 lyase (CYP17) inhibition, acetic acid release assay (AARA) on H295R cells; format: cell-based
T1 construct: endogenous in cells; host or cells: H295R human adrenocortical carcinoma cells
T1 sequence (P05093 1-508): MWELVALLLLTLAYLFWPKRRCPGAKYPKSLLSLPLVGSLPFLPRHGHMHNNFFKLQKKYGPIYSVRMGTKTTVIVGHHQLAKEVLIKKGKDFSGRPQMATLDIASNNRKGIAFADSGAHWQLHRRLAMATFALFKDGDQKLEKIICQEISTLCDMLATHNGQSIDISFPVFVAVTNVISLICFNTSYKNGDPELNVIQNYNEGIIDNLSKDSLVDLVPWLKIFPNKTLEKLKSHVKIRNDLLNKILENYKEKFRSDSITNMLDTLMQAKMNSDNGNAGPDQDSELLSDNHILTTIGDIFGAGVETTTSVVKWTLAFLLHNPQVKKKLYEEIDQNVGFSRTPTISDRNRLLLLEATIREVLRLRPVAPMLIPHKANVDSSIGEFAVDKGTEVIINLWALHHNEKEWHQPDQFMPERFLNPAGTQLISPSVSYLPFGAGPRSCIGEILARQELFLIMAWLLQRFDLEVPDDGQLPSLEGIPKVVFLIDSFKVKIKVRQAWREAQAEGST
Procedure: The ability of the test compounds to inhibit 17,20 lyase catalysed conversion of 17α-hydroxypregnenolone to dehydroepiandrosterone and acetic acid was measured by acetic acid release assay (AARA) on human H295R adrenocortical carcinoma cell line (Grigoryev, D. N. et al., Analytical Biochemistry 1999; 267:319-330). […] The final DMSO concentration was 1%. Cell culture medium was extracted with dextran-coated charcoal suspension (Isomaa, V. et al., Endocrinology 1982; 111(3):833-843). ^3H-acetic acid was determined by mixing 100 μl of supernatant fraction in 200 μl of scintillation fluid (OptiPhase SuperMix, Perkin Elmer). Radioactivity was measured using a Microbeta scintillation counter (1450 MicroBeta Trilux, Wallac). All the test compounds were studied in quadruplicates.

full-length human AR = target: T2, full-length human AR (Homo sapiens, UniProt P10275); experiment: AR antagonism, reporter gene assay in hAR/HEK293 cells; format: cell-based; conditions: HEK293 cells stably transfected with full-length human AR and androgen responsive luciferase reporter; co-treated with submaximal testosterone (usually 0.45 nM); 1% DMSO; triplicates
T2 construct: expression vector encoding full-length human AR; expressed in transfected cells; host or cells: HEK293 (hAR/HEK293 cells)
T2 sequence (P10275 1-920): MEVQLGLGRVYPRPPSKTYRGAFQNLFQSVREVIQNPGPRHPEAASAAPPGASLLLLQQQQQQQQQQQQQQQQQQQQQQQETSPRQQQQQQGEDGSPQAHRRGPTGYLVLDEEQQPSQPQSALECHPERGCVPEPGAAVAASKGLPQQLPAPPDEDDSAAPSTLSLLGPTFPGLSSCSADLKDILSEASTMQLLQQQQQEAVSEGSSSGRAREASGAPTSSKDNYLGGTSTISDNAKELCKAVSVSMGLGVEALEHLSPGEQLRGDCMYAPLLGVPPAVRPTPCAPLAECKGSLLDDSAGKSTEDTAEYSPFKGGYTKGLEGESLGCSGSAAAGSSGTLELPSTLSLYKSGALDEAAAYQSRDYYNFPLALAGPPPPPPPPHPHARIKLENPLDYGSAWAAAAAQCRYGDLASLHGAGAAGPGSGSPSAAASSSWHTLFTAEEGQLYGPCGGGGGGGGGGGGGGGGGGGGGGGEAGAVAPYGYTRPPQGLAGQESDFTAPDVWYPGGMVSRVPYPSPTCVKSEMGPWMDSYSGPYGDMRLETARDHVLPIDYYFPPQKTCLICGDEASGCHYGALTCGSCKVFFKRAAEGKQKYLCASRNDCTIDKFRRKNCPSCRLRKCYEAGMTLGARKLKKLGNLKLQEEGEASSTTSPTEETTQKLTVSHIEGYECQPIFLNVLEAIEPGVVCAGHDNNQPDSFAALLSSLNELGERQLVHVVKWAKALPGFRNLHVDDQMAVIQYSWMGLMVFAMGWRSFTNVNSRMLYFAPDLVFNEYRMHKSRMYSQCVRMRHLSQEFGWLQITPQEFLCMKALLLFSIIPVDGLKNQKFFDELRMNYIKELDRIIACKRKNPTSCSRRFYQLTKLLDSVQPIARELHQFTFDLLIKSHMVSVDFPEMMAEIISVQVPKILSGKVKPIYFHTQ
Procedure: Antagonism of test compounds for AR was measured by reporter gene assay in human embryonic kidney (HEK293) cells stably transfected with an expression vector encoding full-length human AR and androgen responsive luciferase reporter gene construct (hAR/HEK293 cells). To determine antagonism for hAR, the cells were treated simultaneously with increasing concentrations of the test compound and submaximal concentration of testosterone (usually 0.45 nM). The final DMSO concentration was 1%. All test compounds were studied in triplicates. The cells were incubated for […] before measurement of luciferase activity using Luciferase Assay System (Promega Corporation).

[1] = human H295R adrenocortical carcinoma cells, overnight (16-19 h) with 17α-[21-3H]hydroxypregnenolone, 3H-acetic acid release, 1% DMSO, quadruplicates, read-out: CYP17 inhibition IC50

| IC50 (17,20 lyase (CYP17); [1]) [nM] | Compound | IC50 (17,20 lyase (CYP17)) [nM] | IC50 (full-length human AR) [nM] |
| --- | --- | --- | --- |
|  | CCN(c1ccc(C#N)c(C(F)(F)F)c1)C1CC=C(c2cncn2C2CC2)C1 (racemic) [Ex. 53, 4-((3-(1-Cyclopropyl-1H-imidazol-5-yl)cyclopent-3-enyl)(ethyl)amino)-2-(trifluoromethyl)benzonitrile] | 19 | 57 |
| 14 | CN(c1ccc(C#N)c(C(F)(F)F)c1)C1C=C(n2ccnc2)CCC1(C)C (racemic) [Ex. 130 racemate, 4-{[3-(1H-Imidazol-1-yl)-6,6-dimethylcyclohex-2-enyl](methyl)amino}-2-(trifluoromethyl)benzonitrile] |  | 65 |
|  | CCn1cncc1C1=CCC(N(CC2CC2)c2ccc(C#N)c(C(F)(F)F)c2)C1 (racemic) [Ex. 226 racemate, 4-((Cyclopropylmethyl)(3-(1-ethyl-1H-imidazol-5-yl)cyclopent-3-en-1-yl)-amino)-2-(trifluoromethyl)benzonitrile] | 43 | 29 |
|  | CCN(c1ccc(C#N)c(Cl)c1)C1CC=C(c2cncn2CC)C1 (racemic) [Ex. 227 racemate, 2-Chloro-4-(ethyl(3-(1-ethyl-1H-imidazol-5-yl)cyclopent-3-en-1-yl)amino)-benzonitrile] | 19 | 57 |
|  | CCN(c1ccc(C#N)c(C(F)(F)F)c1)[C@H]1CCC[C@@H](c2ccncc2)C1 (relative stereo) [Ex. 61, cis-4-(Ethyl(3-(pyridin-4-yl)cyclohexyl)amino)-2-(trifluoromethyl)benzonitrile] | 108 | 35 |
|  | CN(c1ccc(C#N)c(C(F)(F)F)c1)[C@@H]1C=C(n2ccnc2)[C@H](O)CC1(C)C (relative stereo) [Ex. 236, Cis-4-((4-hydroxy-3-(1H-imidazol-1-yl)-6,6-dimethylcyclohex-2-enyl)-(methyl)amino)-2-(trifluoromethyl)benzonitrile] | 247 | 124 |
|  | CCN(c1ccc(C#N)c(Cl)c1C)C1CCCC(n2ccnc2)C1 (single isomer, unassigned) [Ex. 13, 4-((3-(1H-imidazol-1-yl)cyclohexyl)(ethyl)amino)-2-chloro-3-methylbenzonitrile] | 92 | 60 |
|  | CCN(c1ccc(C#N)c(C(F)(F)F)c1)C1CC(n2ccnc2)CCC1(C)C (single isomer, unassigned) [Ex. 46 cis-enantiomer 2, 4-((5-(1H-Imidazol-1-yl)-2,2-dimethylcyclohexyl)(ethyl)amino)-2-(trifluoromethyl)benzonitrile] | 49 | 40 |
|  | CCN(c1ccc(C#N)c(C(F)(F)F)c1)C1CC=C(c2cncn2C(C)C)C1 (single isomer, unassigned) [Ex. 51 enantiomer 2, 4-(Ethyl(3-(1-isopropyl-1H-imidazol-5-yl)cyclopent-3-enyl)amino)-2-(trifluoromethyl)benzonitrile] | 166 | 17 |
|  | CCN(c1ccc(C#N)c(C(F)(F)F)c1)C1CCC(n2ccnc2)C1 (single isomer, unassigned) [Ex. 86 trans-enantiomer 1, 4-((-3-(1H-imidazol-1-yl)cyclopentyl)(ethyl)amino)-2-(trifluoromethyl)benzonitrile] | 27 | 73 |
| 16 | Cc1nc(N(C)C2C=C(n3ccnc3)CCC2(C)C)ccc1[N+](=O)[O-] (single isomer, unassigned) [Ex. 203 enantiomer 1, N-[3-(1H-Imidazol-1-yl)-6,6-dimethylcyclohex-2-enyl]-N,6-dimethyl-5-nitropyridin-2-amine] |  | 17 |
|  | CCN(c1ccc(C#N)c(C(F)(F)F)c1)C1CC=C(c2cnco2)C1 (single isomer, unassigned) [Ex. 233 enantiomer 1, 4-(Ethyl(3-(oxazol-5-yl)cyclopent-3-enyl)amino)-2-(trifluoromethyl)benzonitrile] | 66 | 59 |
|  | CCN(c1ccc(C#N)c(C(F)(F)F)c1)C1CC(CO)=C(n2ccnc2)C1(C)C (single isomer, unassigned) [Ex. 270 enantiomer 1, 4-(Ethyl(4-(hydroxymethyl)-3-(1H-imidazol-1-yl)-2,2-dimethylcyclopent-3-en-1-yl)amino)-2-(trifluoromethyl)benzonitrile] | 321 | 56 |
|  | CCN(c1ccc(C#N)c(Cl)c1)C1CCCC(n2ccnc2)C1 (single isomer, unassigned; diastereomer 4) [Ex. 91 cis-diastereomer, 4-((3-(1H-imidazol-1-yl)cyclohexyl)(ethyl)amino)-2-chlorobenzonitrile] | 36 | 64 |
|  | CCN(c1ccc(C#N)c(C(F)(F)F)c1)C1CCCC(n2cncn2)C1 (single isomer, unassigned; diastereomer 4) [Ex. 209 cis-diastereomer, 4-((3-(1H-1,2,4-triazol-1-yl)cyclohexyl)(ethyl)amino)-2-(trifluoromethyl)-benzonitrile] | 154 | 56 |
| 7 | CCN(c1ccc(C#N)c(Cl)c1)C1CC=C(c2c[nH]cn2)C1 (stereo not shown) [Ex. 133, 4-((3-(1H-Imidazol-4-yl)cyclopent-3-en-1-yl)(ethyl)amino)-2-chlorobenzonitrile] |  |  |
| 17 | CCN(c1ccc(C#N)c(C(F)(F)F)c1)C1CC=C(c2c[nH]cn2)C1 (stereo not shown) [Ex. 150, 4-((3-(1H-imidazol-4-yl)cyclopent-3-en-1-yl)(ethyl)amino)-2-(trifluoromethyl)benzonitrile] |  |  |
| 10 | CN(c1ccc(C#N)c(C(F)(F)F)c1)C1C=C(c2cncn2CCOCc2ccccc2)CCC1(C)C (stereo not shown) [Ex. 220, 4-((3-(1-(2-(benzyloxy)ethyl)-1H-imidazol-5-yl)-6,6-dimethylcyclohex-2-en-1-yl)(methyl)amino)-2-(trifluoromethyl)benzonitrile] |  |  |

| Compound | IC50 (17,20 lyase (CYP17); [1]) [nM] | IC50 (17,20 lyase (CYP17)) [nM] | IC50 (full-length human AR) [nM] |
| --- | --- | --- | --- |
| CN(c1ccc(C#N)c(C(F)F)c1)C1C=C(n2ccnc2)CCC1(C)C (single isomer, unassigned) [Ex. 240(b), 4-((3-(1H-imidazol-1-yl)-6,6-dimethylcyclohex-2-enyl)(methyl)amino)-2-(difluoromethyl)benzonitrile (pure enantiomer)] | 33 |  | 52 |
| CCN(c1ccc(C#N)c(C(F)(F)F)c1)C1CCC(c2cnc[nH]2)C1 (stereo not shown) [Ex. 219, 4-((3-(1H-imidazol-5-yl)cyclopentyl)(ethyl)amino)-2-(trifluoromethyl)-benzonitrile] | 105 |  |  |
| CCN(c1ccc(C#N)c(C(F)(F)F)c1)C1CCCC(c2cnc[nH]2)C1 (stereo not drawn) [Ex. 224 cis-diasteromer, 4-((3-(1H-imidazol-5-yl)cyclohexyl)(ethyl)amino)-2-(trifluoromethyl)benzonitrile] | 59 |  |  |
